In publication PMC10739260, “Shape-Based Virtual Screening of a Billion-Compound Library Identifies Mycobacterial Lipoamide Dehydrogenase Inhibitors” (ACS Bio & Med Chem Au, 2023):
Like-named read-outs stand apart in the source and are kept apart here.

Key:
Mtb Lpd [1] = molecular target: T1, Mtb Lpd (Mycobacterium tuberculosis, UniProt P9WHH9); test: Lpd enzyme assay (spectrophotometric, DTNB, lipoamide, NADH); assay type: biochemical; conditions: for inhibition at 10 µM: compound at 10 μM, read-out: LPD %inh ± SD at 10 μM; for IC50: dose response 100 to 0.005 μM, values marked * from one replicate; for potency improvement over des-methyl screen hit: methylated analogue vs Z1765676493 / Z819807984, Lpd IC50
T1 construct: made in house
Protocol: The Lpd enzyme assay was performed at a CRO with a previously reported protocol.[9],[11] Briefly, the Lpd activity was measured by a spectrophotometric assay with DTNB, lipoamide, and NADH. Final concentrations of components in the reaction mixture were as follows: 125 μM NADH, 125 μM DTNB, 40 μM NAD+, 75 μM lipoamide in 25 mM potassium phosphate, and 1 mM EDTA pH 7.0. Compounds were tested initially at 10 μM. Compounds showing significant inhibition at 10 μM were tested in dose–response from 100 to 0.005 μM by serial dilutions. Curves were fit, and IC50 values were calculated using Prism dose–response inhibition analysis (four-parameter fit).

Mtb [2] = test: Mtb MIC assay (bacterial growth inhibition); assay type: cell-based, Mycobacterium tuberculosis; conditions: for Mtb MIC: Table S1, known actives used as probes in GPU Shape screen
Lpd protein = molecular target: T2, Lpd protein (Mycobacterium tuberculosis, UniProt P9WHH9); test: Surface plasmon resonance (SPR) binding to immobilized Lpd; conditions: 25 °C
T2 construct: made in house
T2 sequence (P9WHH9 1-464): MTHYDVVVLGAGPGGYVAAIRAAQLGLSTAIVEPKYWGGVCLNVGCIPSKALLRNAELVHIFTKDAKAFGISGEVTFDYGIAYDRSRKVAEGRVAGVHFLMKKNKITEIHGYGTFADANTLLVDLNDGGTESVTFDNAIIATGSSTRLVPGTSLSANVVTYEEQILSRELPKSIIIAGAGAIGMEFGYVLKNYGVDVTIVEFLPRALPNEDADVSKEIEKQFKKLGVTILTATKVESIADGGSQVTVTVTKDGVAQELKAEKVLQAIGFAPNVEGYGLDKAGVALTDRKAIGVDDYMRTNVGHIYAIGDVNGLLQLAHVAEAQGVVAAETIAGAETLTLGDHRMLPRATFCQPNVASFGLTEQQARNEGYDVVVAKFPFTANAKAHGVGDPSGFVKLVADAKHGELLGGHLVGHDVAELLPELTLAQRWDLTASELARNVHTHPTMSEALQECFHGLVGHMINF

Mtb Lpd [3] = molecular target: T1, Mtb Lpd; conditions: read-out: Lpd IC50; Figure 1, representative sulfonamide series inhibitors; cited from earlier work
PDH complex = molecular target: T3, PDH complex (Mycobacterium tuberculosis, UniProt P9WHH9); test: PDH complex inhibition; assay type: biochemical
T3 sequence (P9WHH9 1-464): T2 sequence (P9WHH9 1-464)

Mtb [4] = tested on: Mtb; design: method as in PMID 33527832; conditions: Figure 1, representative sulfonamide series inhibitors; cited from earlier work
[5] = 1:1 Langmuir model, analyte line 013537

COC(=O)c1cccc(NC2CCN(C(=O)c3cc(C)cc4cn[nH]c34)CC2)c1 [Compound Z1464810837]
inhibition at 10 µM (Mtb Lpd [1]): 15.7 ± 4.6% | IC50 (Mtb Lpd [1]): 30 µM

CC(=O)Nc1cccc(NC(=O)CN(C)S(=O)(=O)c2cc(C)cc(C(F)F)c2)c1 [1 (TDI-13537)]
inhibition of Mtb bacterial growth in the MIC assay (Mtb [2]; data not shown): did not show inhibition | potency improvement over des-methyl screen hit (Mtb Lpd [1]): 15- to 20 fold | Kd (Lpd protein; [5]): 0.241 µM | kd (Lpd protein; [5]): 0.01243 s⁻¹ | Kd (Lpd protein; analyte line 013537-NADH): 0.291 µM | kd (Lpd protein; analyte line 013537-NADH): 0.01141 s⁻¹

Cc1cc(S(=O)(=O)N2CCC[C@H]2C(=O)Nc2ccn(C)c(=O)c2)c2[nH]ncc2c1 [TDI-011002]
IC50 (Mtb Lpd [3]): 0.05 µM | Mtb MIC (Mtb [2]): 25 µM | IC50 (PDH complex): 0.19 µM | Mtb MIC (Mtb [4]): 25 µM

CCN(CC(=O)Nc1cccc(OC)c1)S(=O)(=O)c1cccc2c1NC(=O)CO2 [Compound Z1601661851]
inhibition at 10 µM (Mtb Lpd [1]): 18.5 ± 1.6% | IC50 (Mtb Lpd [1]): 30 µM

COc1ccc(NC(=O)CN(C)S(=O)(=O)c2cc(Br)cnc2N)cc1 [SL827]
Mtb MIC (Mtb [4]): > 100 µM

CCN(CC(=O)Nc1ccc(N2CCOCC2)cc1)S(=O)(=O)c1cc(C)c(F)c(C(F)(F)F)c1 [Compound 2]
IC50 (Mtb Lpd [1]): 0.37 µM | potency improvement over des-methyl screen hit (Mtb Lpd [1]): 15- to 20 fold

CCOC(=O)c1c(C)n[nH]c1S(=O)(=O)N(C)CC(=O)Nc1ccc(F)cc1 [Compound Z740306332]
inhibition at 10 µM (Mtb Lpd [1]): 9.6 ± 1.8% | IC50 (Mtb Lpd [1]): 100 µM

CCN(CC(=O)Nc1ccc(N2CCOCC2)cc1)S(=O)(=O)c1ccc(F)c(C(F)(F)F)c1 [Compound Z819807984]
inhibition at 10 µM (Mtb Lpd [1]): 68.9 ± 0.9% | IC50 (Mtb Lpd [1]): 5 ± 0.04 µM

Cc1cc(S(=O)(=O)N(C)CC(=O)Nc2ccn(C)c(=O)c2)c2[nH]ncc2c1 [TDI-010705]
Mtb MIC (Mtb [2]): 4 µM | Mtb MIC (Mtb [4]): 3.7 µM

CC(=O)Nc1cccc(NC(=O)CN(C)S(=O)(=O)c2cccc(C(F)F)c2)c1 [Compound Z1765676493]
inhibition at 10 µM (Mtb Lpd [1]): 69.1 ± 2.2% | IC50 (Mtb Lpd [1]): 3.5 ± 2.8 µM

CN(CC(=O)Nc1cccc(F)c1)S(=O)(=O)c1cccc2c1NC(=O)CO2 [Compound Z1601662276]
inhibition at 10 µM (Mtb Lpd [1]): 12.7 ± 1.2% | IC50 (Mtb Lpd [1]): 100 µM
